Source: the supplement of paper PMC13380429

What was measured:
Details in all cases: 72 h
Calu-3 [1] = experiment: relative viability EC50 (midpoint between 100% and the lowest measured viability); higher = less toxic
Vero E6 [2] = experiment: as above
U2OS [3] = experiment: as above
Caco-2 [4] = experiment: as above
Calu-3 [5] = experiment: cell viability relative to DMSO; higher = less toxic
Vero E6 [6] = experiment: as above
U2OS [7] = experiment: as above
Caco-2 [8] = experiment: as above
Calu-3 [9] = experiment: drug sensitivity score (DSS) for viability; higher = more toxic; extreme values may be limits of the assay
Vero E6 [10] = experiment: as above
U2OS [11] = experiment: as above
Caco-2 [12] = experiment: as above
HepG2 [13] = experiment: relative viability EC50 (midpoint between 100% and the lowest measured viability); higher = less toxic
HepG2 [14] = experiment: cell viability relative to DMSO; higher = less toxic
HepG2 [15] = experiment: drug sensitivity score (DSS) for viability; higher = more toxic; extreme values may be limits of the assay

| Structure (SMILES) | relative viability EC50 (Calu-3 [1]) [µM] | relative viability EC50 (Vero E6 [2]) [µM] | relative viability EC50 (U2OS [3]) [µM] | relative viability EC50 (Caco-2 [4]) [µM] | cell viability (Calu-3 [5]; 1 nM) [%] | cell viability (Calu-3 [5]; 10 nM) [%] | cell viability (Calu-3 [5]; 100 nM) [%] | cell viability (Calu-3 [5]; 1000 nM) [%] | cell viability (Calu-3 [5]; 10000 nM) [%] | cell viability (Vero E6 [6]; 1 nM) [%] | cell viability (Vero E6 [6]; 10 nM) [%] | cell viability (Vero E6 [6]; 100 nM) [%] | cell viability (Vero E6 [6]; 1000 nM) [%] | cell viability (Vero E6 [6]; 10000 nM) [%] | cell viability (U2OS [7]; 1 nM) [%] | cell viability (U2OS [7]; 10 nM) [%] | cell viability (U2OS [7]; 100 nM) [%] | cell viability (U2OS [7]; 1000 nM) [%] | cell viability (U2OS [7]; 10000 nM) [%] | cell viability (Caco-2 [8]; 1 nM) [%] | cell viability (Caco-2 [8]; 10 nM) [%] | cell viability (Caco-2 [8]; 100 nM) [%] | cell viability (Caco-2 [8]; 1000 nM) [%] | cell viability (Caco-2 [8]; 10000 nM) [%] | drug sensitivity score (Calu-3 [9]) | drug sensitivity score (Vero E6 [10]) | drug sensitivity score (U2OS [11]) | drug sensitivity score (Caco-2 [12]) | relative viability EC50 (HepG2 [13]) [µM] | cell viability (HepG2 [14]; 1 nM) [%] | cell viability (HepG2 [14]; 10 nM) [%] | cell viability (HepG2 [14]; 100 nM) [%] | cell viability (HepG2 [14]; 1000 nM) [%] | cell viability (HepG2 [14]; 10000 nM) [%] | drug sensitivity score (HepG2 [15]) |
| --- | --- | --- | --- | --- | --- | --- | --- | --- | --- | --- | --- | --- | --- | --- | --- | --- | --- | --- | --- | --- | --- | --- | --- | --- | --- | --- | --- | --- | --- | --- | --- | --- | --- | --- | --- |
| COc1ccc(Cc2nc(O)c3c(C)nc([C@@H](CCCc4ccccc4)[C@@H](C)O)n3n2)cc1OC [BAY-60-7550] | > 10 | > 10 | > 10 | > 10 | 103 | 100 | 118 | 96.6 | 101 | 103 | 105 | 98.5 | 98.1 | 95.2 | 101 | 106 | 101 | 103 | 94.6 | 95.7 | 101 | 95.5 | 92.4 | 93.1 | 0 | 0 | 0 | 0 | – | – | – | – | – | – | – |
| O=C(O)/C=C/c1ccc(-c2ccc(O)c(C34CC5CC(CC(C5)C3)C4)c2)cc1 [adarotene] | 0.854 | – | 0.347 | 0.306 | 96.9 | 103 | 98.4 | 56.5 | 24.4 | 94 | 104 | 102 | 53.4 | 54.4 | 93.9 | 98.5 | 101 | 14.5 | 11.8 | 87.5 | 96.7 | 96.8 | 38 | 35.3 | 9.4 | 8.3 | 15.5 | 12 | 0.285 | 97.9 | 94.6 | 95.7 | 29.1 | 27.1 | 13.7 |
| CC(C)[C@H](CO)Nc1nc(Nc2cc(N)cc(Cl)c2)c2ncn(C(C)C)c2n1 [aminopurvalanol-a] | 3.07 | – | 2.75 | 3.2 | 98.4 | 87.7 | 101 | 99.3 | 47 | 99.7 | 102 | 96.9 | 95.3 | 53.3 | 94 | 99.7 | 101 | 96.5 | 34 | 101 | 97 | 98.5 | 100 | 38.2 | 2.9 | 3.2 | 4.1 | 3.3 | 3.54 | 101 | 99.3 | 93.8 | 105 | 34.6 | 3.2 |
| O=C(N/N=C/c1ccc(O)c(O)c1)c1cc2ccccc2cc1O [dynasore] | > 10 | > 10 | > 10 | > 10 | 108 | 97.5 | 104 | 103 | 97.4 | 103 | 98.3 | 102 | 103 | 97.2 | 95.9 | 102 | 103 | 106 | 87.9 | 98.4 | 95.8 | 101 | 104 | 92.8 | 0 | 0 | 0 | 0 | – | – | – | – | – | – | – |
| Cc1c(OCC(F)(F)F)ccnc1C[S+]([O-])c1nc2ccccc2[nH]1 (stereo not drawn) [lansoprazole] | > 10 | – | > 10 | > 10 | 93.1 | 107 | 95.1 | 107 | 92.3 | – | – | – | – | – | 94.8 | 101 | 93 | 93.8 | 93.8 | 99.7 | 94.3 | 96.6 | 97 | 92.6 | 0 | – | 0 | 0 | > 10 | 104 | 96.8 | 96.1 | 92.1 | 96.5 | 0 |
| CC(C)Nc1nc2cc(Cl)c(Cl)cc2n1[C@H]1O[C@@H](CO)[C@H](O)[C@@H]1O [maribavir] | > 10 | – | > 10 | > 10 | 96.4 | 112 | 106 | 101 | 102 | – | – | – | – | – | 97.7 | 101 | 92.1 | 102 | 93.7 | 96.9 | 98.9 | 97.3 | 99.5 | 91 | 0 | – | 0 | 0 | > 10 | 106 | 104 | 110 | 107 | 97.9 | 0 |
| CC12CC3CC(C)(C1)CC(N)(C3)C2 [memantine] | > 10 | > 10 | > 10 | > 10 | 101 | 98.8 | 98.3 | 99.7 | 87.1 | 106 | 99.1 | 105 | 102 | 96.6 | 97.3 | 96.4 | 96.6 | 99.6 | 98.9 | 102 | 91.8 | 90.3 | 96.9 | 96.9 | 0.1 | 0 | 0 | 0 | – | – | – | – | – | – | – |
| CCCCCCCCCCCCCC(=O)[O-].CCCCCCCCCCCCCC(=O)[O-].N[C@@H]1CCCC[C@H]1N.[Pt+2] [miriplatin] | > 10 | – | > 10 | > 10 | 90.9 | 101 | 104 | 99.2 | 87.4 | – | – | – | – | – | 100 | 97.7 | 99.2 | 95.4 | 99.3 | 102 | 93.5 | 98.1 | 91.2 | 104 | 0.1 | – | 0 | 0 | > 10 | 105 | 101 | 106 | 97.1 | 92.1 | 0 |
| O=C(O)/C=C/c1ccc(O)cc1 [naringeninic-acid] | > 10 | – | > 10 | > 10 | 93.2 | 109 | 100 | 109 | 108 | – | – | – | – | – | 102 | 103 | 98.9 | 106 | 101 | 88 | 91.5 | 86.1 | 104 | 85.4 | 0 | – | 0 | 0.1 | > 10 | 92 | 108 | 97.5 | 96.8 | 94 | 0 |
| CCc1nn(CCCN2CCN(c3cccc(Cl)c3)CC2)c(=O)n1CCOc1ccccc1 [nefazodone] | > 10 | > 10 | > 10 | > 10 | 103 | 94.6 | 96.7 | 96.3 | 96.8 | 95.6 | 101 | 97.5 | 102 | 96.6 | 106 | 100 | 101 | 99 | 97.4 | 96.4 | 95.3 | 100 | 99.8 | 86.3 | 0 | 0 | 0 | 0.1 | – | 93.2 | 91.5 | 95.7 | 97.6 | 70.8 | 1.6 |
| COCCOC(=O)C1=C(C)NC(C)=C(C(=O)OC(C)C)C1c1cccc([N+](=O)[O-])c1 (stereo not drawn) [nimodipine] | > 10 | > 10 | > 10 | > 10 | 101 | 98.2 | 104 | 96.7 | 97.8 | 98.6 | 100 | 103 | 102 | 88.1 | 97.2 | 97.8 | 104 | 97.8 | 95.9 | 98.4 | 93.4 | 87.8 | 98.1 | 91.5 | 0 | 0 | 0 | 0 | – | – | – | – | – | – | – |
| N#Cc1ccc(-c2csc(NN=C3CCCC3)n2)cc1 [remodelin] | > 10 | > 10 | > 10 | > 10 | 102 | 102 | 96.3 | 116 | 93 | 98.3 | 103 | 102 | 99.2 | 105 | 98.3 | 102 | 99.3 | 105 | 95.5 | 95.5 | 99.7 | 94.8 | 103 | 76.6 | 0 | 0 | 0 | 0.7 | – | 105 | 97.2 | 109 | 92.3 | 73.1 | 2.2 |
| O=C(O)c1cc(/N=N/c2ccc(S(=O)(=O)Nc3ccccn3)cc2)ccc1O [sulfasalazine] | > 10 | > 10 | > 10 | > 10 | 101 | 102 | 102 | 104 | 91.5 | 104 | 103 | 107 | 98.7 | 97.6 | 98.6 | 99.1 | 97.4 | 102 | 98.1 | 108 | 99.5 | 89.9 | 96.6 | 112 | 0 | 0 | 0 | 0 | – | – | – | – | – | – | – |
| CCOC(=O)N1CSC[C@H]1C(=O)O [telmesteine] | > 10 | – | > 10 | > 10 | 97.9 | 91 | 94.8 | 107 | 102 | – | – | – | – | – | 97.1 | 100 | 99.2 | 96.4 | 99 | 109 | 93.6 | 100 | 90.2 | 95.5 | 0 | – | 0 | 0 | > 10 | 101 | 109 | 105 | 90.1 | 88.9 | 0.2 |
| C=C(NC(=O)C(=C)NC(=O)c1csc(C2=N[C@@H]3c4csc(n4)[C@H]4NC(=O)c5csc(n5)[C@H]([C@](C)(O)[C@@H](C)O)NC(=O)[C@H]5CSC(=N5)/C(=C/C)NC(=O)[C@H]([C@@H](C)O)NC(=O)c5csc(n5)[C@]3(CC2)NC(=O)[C@H](C)NC(=O)C(=C)NC(=O)[C@H](C)NC(=O)[C@H]([C@@H](C)CC)N[C@@H]2C=Cc3c([C@H](C)O)cc(nc3[C@H]2O)C(=O)O[C@@H]4C)n1)C(N)=O [thiostrepton] | > 10 | – | > 10 | > 10 | 101 | 95 | 97.8 | 99.1 | 110 | – | – | – | – | – | 100 | 94 | 95.8 | 75.3 | 93.6 | 102 | 89.3 | 89.5 | 82.9 | 96.9 | 0 | – | 0.7 | 0.2 | > 10 | 111 | 102 | 81 | 87.6 | 84.5 | 4.3 |
| CCCS(=O)(=O)Nc1ccc(F)c(C(=O)c2c[nH]c3ncc(-c4ccc(Cl)cc4)cc23)c1F [vemurafenib] | > 10 | > 10 | > 10 | > 10 | 102 | 105 | 106 | 95.8 | 90.1 | 106 | 104 | 100 | 111 | 91.7 | 96.6 | 100 | 95.2 | 104 | 86.8 | 109 | 97.3 | 117 | 107 | 77 | 0 | 0 | 0.1 | 0.5 | – | 113 | 103 | 98.3 | 107 | 54.5 | 1.9 |
